{"source": "patent US20060167106A1", "about": "“Compounds acting at the centrosome” (priority 2004, published 2006)", "key": {"CHO-α-tubulin-YFP cells": {"test_system": "CHO-α-tubulin-YFP cells", "test": "α-tubulin-YFP localization in CHO-α-tubulin-YFP cells (fluorescence imaging)", "format": "cell-based, Chinese hamster", "conditions": "for accumulation of tubulin in the centrosomes (overall statement): CHO-tubulin-YFP cells, concentration and time not given; for accumulation of tubulin at the centrosomes versus in the nucleus (overall statement): cells treated, concentration not given", "description": "Wild-type Chinese Hamster Ovary cells (WT CHO) cells were maintained in Ham's F-12 medium supplemented with 10% fetal bovine serum (FBS; HyClone, Logan, Utah). Cells of low density (˜20%) growing on 2-well chambered cover-slips (Labtek (Campbell, Calif.) or Fisher Scientific) were transfected with a mammalian expression vector encoding α-tubulin-YFP (Clontech, Palo Alto, Calif.) with the use of FuGENE 6 (Roche Molecular Biochemicals, Indianapolis, Ind.), according to the manufacturer's instructions. Twenty-four hours after transfection, the cells were cultured in 400 μg/ml G418 (Invitrogen, Carlsbad, Calif.)-containing selection medium for 2 weeks. Living cells were examined using a fluorescent microscope for α-tubulin-YFP expression. Cells in single colonies containing microtubules labeled with α-tubulin-YFP were lifted and expanded in G418-containing medium. Expression of α-tubulin-YFP was confirmed by the presence of the tubulin-YFP labeled microtubule pattern identical to immunostained microtubule pattern of non-transfected cells, as well as by subjecting the cells to Western blot analysis using an anti-GFP antibody (Roche Molecular Biochemicals, Basel, Switzerland) and confirming the correct mass of the α-tubulin-YFP chimera protein. Expressed tubulin-YFP was detected as a single band in Western blots. The tubulin-YFP expressing cell lines (referred as CHO-α-tubulin-YFP cells) were used in the studies.\nCHO-α-tubulin-YFP cells were cultured in 2-well chambered cover-slips (Labtek (Campbell, Calif.) or Fisher Scientific) 24 hours before treatment. For comparison of the centrosomal effects of treatment with Compound 1, Compound 1+Taxol, and Taxol, CHO-α-tubulin-YFP cells were treated with Compound 1, Compound 1+Taxol, Taxol, or equivalent concentrations of DMSO-containing media for various time periods before imaging. For comparison of the effects of Compound 1 and known proteasome inhibitors on centrosomes, the nucleus, and perinuclear regions, CHO-α-tubulin-YFP cells were treated with Compound 1, ALLN (Calbiochem, San Diego, Calif.), lactacystin (Calbiochem, San Diego, Calif.) or MG132 (Calbiochem, San Diego, Calif.), and imaged at various time points from 3 hours to 24 hours after treatment.\nTubulin-YFP fluorescence in living cells or fixed cells was captured using a standard filter for FITC and objectives of 20× or 60× magnification on a Nikon TE300 microscope with a Leica DC50 color digital camera (Leica, Bannockburn, Ill.) or a CoolSnap HQ Monochrome CCD camera (Photonetrics, Tucson, Ariz.). The Leica DC50 and CoolSnapHQ cameras were controlled with Leica DC50 software and MetaVue/MetaMorph software, respectively (Universal Imaging Corp, Downingtown, Pa.).\nCHO-α-tubulin-YFP cells were cultured in 2-well chambered cover-slips (Labtek (Campbell, Calif.) or Fisher Scientific) 24 hours before treatment. For comparison of effects on the centrosome, nucleus, and perinuclear regions, cells were treated with Compound 1 and known proteasome inhibitors including ALLN, MG132, Lactacystin, MG115, clasto-Lactacystin β-Lactone (cLβL), and Epoxomicin (10 μM final concentration for all except ALLN, which was used at 100 μM final concentration) (proteasome inhibitors were from Calbiochem, San Diego, Calif.) and imaged at various time points up to 24 hours during treatment.\nTubulin-YFP fluorescence in living cells or fixed cells was captured using a standard filter for FITC and objectives of 20× or 60× magnification on the Nikon TE300 microscope/digital imaging system."}, "[1]": {"test_system": "cell line expressing α-tubulin-YFP", "test": "α-tubulin-YFP expressing cell line, flow cytometry of strong fluorescent cells", "format": "cell-based"}, "Aurora-A kinase": {"target": "T1, Aurora-A kinase (Homo sapiens, UniProt O14965)", "T1 construct": "purchased MBL International (CycLex)", "T1 sequence (O14965 1-403)": "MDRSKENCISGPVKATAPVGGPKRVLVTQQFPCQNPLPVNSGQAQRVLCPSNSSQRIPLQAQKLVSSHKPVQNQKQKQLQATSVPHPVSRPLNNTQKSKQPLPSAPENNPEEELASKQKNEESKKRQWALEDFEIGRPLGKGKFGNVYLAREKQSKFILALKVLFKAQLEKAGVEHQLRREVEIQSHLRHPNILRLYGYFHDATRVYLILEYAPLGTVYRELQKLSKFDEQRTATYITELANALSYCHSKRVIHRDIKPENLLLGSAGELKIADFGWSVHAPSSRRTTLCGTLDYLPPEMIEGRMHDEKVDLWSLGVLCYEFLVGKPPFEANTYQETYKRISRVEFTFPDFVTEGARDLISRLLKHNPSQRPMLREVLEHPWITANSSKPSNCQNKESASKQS", "test": "Aurora-A Kinase Assay (ELISA, Lats2 phosphorylation)", "format": "biochemical", "conditions": "50 nM to 50 μM", "method": "In the assay, the amount of phosphorylated substrate is measured by binding to ST-3B11, an anti-phospho-Lats2 serine83 monoclonal antibody, subsequently incubating with horseradish peroxidase-conjugated anti-mouse IgG, which then catalyzes the conversion of the chromogenic substrate tetra-methylbenzidine (TMB) from a colorless solution to a blue solution. The color is then quantified by spectrophotometry, which reflects the relative amount of Aurora-A activity in the sample.\nThe assay was then performed according to the manufacturer's instructions using 40 Units/well of recombinant Aurora A enzyme. In the ‘enzyme control’ Aurora A enzyme and the ‘ATP minus control’, ATP was omitted from the reaction mixture. […] The color was quantified using a spectrophotometer (Perkin Elmer HTS 7000 Bio Assay Reader) at 450/535 nm wavelengths."}, "[2]": {"test_system": "bovine microtubule-associated protein (MAP)-free tubulin", "test": "Tubulin Polymerization Assay (MAP-free tubulin)", "format": "biochemical", "description": "For in vitro tubulin polymerization assays, lyophilized bovine microtubule-associated protein (MAP)-free tubulin and PEM buffer (80 mM Na-PIPES (pH 6.9), 1 mM MgCl2, 1 mM EGTA) were purchased from Cytoskeleton (Denver, Colo.). MAP-free tubulin (1.5 mg/ml) was incubated with the test compounds, 0.5 μM Compound 1, 3 μM Taxol, 0.5 μM Compound 1+3 μM Taxol or 0.5 μM Compound 1+30 nM Taxol in PEM-0.3% DMSO. Absorbance at 340 nm was measured every minute for 60 min at 37° C. using a Perkin Elmer HTS 7000 spectrophotometer."}, "CHO cells": {"test_system": "CHO cells", "test": "Oregon Green 488-Taxol localization in CHO cells", "format": "cell-based, Chinese hamster", "conditions": "0.5 μM Compound 1", "description": "A fluorescent compound, Oregon Green 488-Taxol (Molecular Probes/Invitrogen), was utilized to determine the distribution of Taxol in CHO cells (FIG. 33). In addition, the targeting of fluorescent Taxol to centrosomes was examined in Compound 1-treated cells (FIG. 34). Non-transfected wild-type CHO cells and HeLa cells were cultured in 2-well chambered cover-slips for 24-48 hours before treatment. Oregon Green 488-Taxol stock solution was made with DMSO. […] Oregon Green 488-Taxol fluorescence in living cells or fixed cells was imaged using a standard filter for FITC with the Nikon TE300 microscope/digital imaging system."}, "MCF-7 cells": {"test_system": "MCF-7 cells", "test": "α-tubulin-YFP localization in MCF-7 cells", "format": "cell-based", "conditions": "40 hours after treatment with 500 nM for 25 hours", "description": "MDA-435, MCF-7, CV-1, HT-29 and MCF-10A cell lines were maintained with 10% FBS-containing DMEM media. […] Living cells were examined using a fluorescent microscope for α-tubulin-YFP expression. Cells in single colonies that had microtubules labeled with tubulin-YFP were lifted and expanded using G418-containing media."}, "[3]": {"conditions": "cited from earlier work"}}, "note": "“Also recorded” adds a separate entry of the source."}
{"smiles": "CN(NC(=O)CC(=O)NN(C)C(=S)c1ccccc1)C(=S)c1ccccc1", "note": "[Compound 1]", "values": [{"measurement": "accumulation of α-tubulin-YFP at centrosomes", "setting": "CHO-α-tubulin-YFP cells; CHO cells, 50 nM, 8 hours", "value": "accumulation of α-tubulin-YFP at centrosomes; also recorded: induced accumulation of tubulin at centrosomes within 8 hours"}, {"measurement": "accumulation of α-tubulin-YFP at centrosomes", "setting": "CHO-α-tubulin-YFP cells; CHO cells, 50 nM, 20 hours", "value": "accumulation of α-tubulin-YFP at centrosomes"}, {"measurement": "accumulation of α-tubulin-YFP at centrosomes", "setting": "CHO-α-tubulin-YFP cells; CHO cells, 100 nM, 4 hours", "value": "accumulation of tubulin at centrosomes could be observed; also recorded: accumulation of α-tubulin-YFP at centrosomes"}, {"measurement": "accumulation of α-tubulin-YFP at the centrosomes", "setting": "CHO-α-tubulin-YFP cells; CHO cells, 0.5 μM, 5 hours", "value": "accumulation of α-tubulin-YFP at the centrosomes and perinuclear regions"}, {"measurement": "accumulation of α-tubulin-YFP at the centrosomes", "setting": "CHO-α-tubulin-YFP cells; CHO cells, 0.5 μM, 11 hours", "value": "accumulation of α-tubulin-YFP at the centrosomes; also recorded: more frequent and greater accumulation of tubulin at the centrosome"}, {"measurement": "accumulation of tubulin-YFP at the centrosomes", "setting": "CHO-α-tubulin-YFP cells; CHO cells, 0.5 μM, 24 hours", "value": "accumulation of tubulin-YFP at the centrosomes"}, {"measurement": "accumulation of α-tubulin-YFP at centrosomes", "setting": "CHO-α-tubulin-YFP cells; CHO cells, 500 nM, 4 hours", "value": "accumulation of α-tubulin-YFP at centrosomes"}, {"measurement": "accumulation of α-tubulin-YFP at centrosomes", "setting": "CHO-α-tubulin-YFP cells; CHO cells, 500 nM, 20 hours", "value": "accumulation of α-tubulin-YFP at centrosomes"}, {"measurement": "first sign of tubulin accumulation at the centrosomes, time after treatment", "setting": "CHO-α-tubulin-YFP cells; CHO cells, Compound 1 alone (0.5 μM)", "value": 5, "unit": "h"}, {"measurement": "accumulation of tubulin in the centrosomes (overall statement)", "setting": "CHO-α-tubulin-YFP cells", "value": "time-dependent accumulation of α-tubulin-YFP at the centrosomes; also recorded: caused an accumulation of tubulin in the centrosomes"}, {"measurement": "accumulation of tubulin at the centrosomes versus in the nucleus (overall statement)", "setting": "CHO-α-tubulin-YFP cells", "value": "induced accumulation of tubulin only at the centrosomes; also recorded: not observed"}, {"measurement": "increase of the strong-fluorescent positive cells compared to DMSO", "setting": "[1]; 500 nM", "value": 20.37, "unit": "%"}, {"measurement": "inhibition of the phosphorylation of Lats2 by Aurora-A kinase", "setting": "Aurora-A kinase", "value": "did not inhibit the phosphorylation of Lats2 by Aurora-A kinase"}, {"measurement": "effect on the kinetics of tubulin polymerization", "setting": "[2]; 0.5 μM", "value": "no effect on the kinetics of tubulin polymerization"}, {"measurement": "influence on the effect of Taxol on tubulin polymerization", "setting": "[2]; 0.5 μM Compound 1 with 3 μM or 30 nM Taxol", "value": "did not influence the effect of either high dose (3 μM) or low dose (30 nM) of Taxol on tubulin polymerization"}, {"measurement": "effect on the accumulation of Taxol (Oregon Green 488-Taxol) at centrosomes", "setting": "CHO cells", "value": "no effect on the accumulation of Taxol at centrosomes"}, {"measurement": "accumulation of α-tubulin-YFP at centrosome-like structures", "setting": "MCF-7 cells", "value": "accumulation of α-tubulin-YFP at centrosome-like structures"}, {"measurement": "toxicity in vivo", "setting": "[3]", "value": "very low toxicity in vivo"}]}
{"smiles": "CC(C)C[C@H](NC(=O)[C@H](Cc1ccccc1)NC(=O)c1cnccn1)B(O)O", "note": "[Velcade]", "values": [{"measurement": "accumulation of α-tubulin-YFP at centrosomes", "setting": "CHO-α-tubulin-YFP cells; CHO cells, 50 nM, 20 hours", "value": "accumulation of α-tubulin-YFP at centrosomes"}, {"measurement": "accumulation of α-tubulin-YFP in the nucleus", "setting": "CHO-α-tubulin-YFP cells; CHO cells, 50 nM, 20 hours", "value": "accumulation of α-tubulin-YFP in the nucleus"}, {"measurement": "accumulation of α-tubulin-YFP at centrosomes", "setting": "CHO-α-tubulin-YFP cells; CHO cells, 500 nM, 4 hours", "value": "lack of accumulation of tubulin-YFP at the centrosomes"}, {"measurement": "accumulation of α-tubulin-YFP at centrosomes", "setting": "CHO-α-tubulin-YFP cells; CHO cells, 500 nM, 8 hours", "value": "accumulation of α-tubulin-YFP at centrosomes"}, {"measurement": "accumulation of α-tubulin-YFP in the nucleus", "setting": "CHO-α-tubulin-YFP cells; CHO cells, 500 nM, 8 hours", "value": "accumulation α-tubulin-YFP in the nucleus"}, {"measurement": "accumulation of α-tubulin-YFP at centrosomes", "setting": "CHO-α-tubulin-YFP cells; CHO cells, 500 nM, 20 hours", "value": "accumulation of α-tubulin-YFP at centrosomes"}, {"measurement": "accumulation of α-tubulin-YFP in the nucleus", "setting": "CHO-α-tubulin-YFP cells; CHO cells, 500 nM, 20 hours", "value": "accumulation of α-tubulin-YFP in the nucleus"}, {"measurement": "accumulation of tubulin in the centrosomes (overall statement)", "setting": "CHO-α-tubulin-YFP cells", "value": "required a higher concentration (500 nM; FIG. 25D) and/or a longer time period"}, {"measurement": "accumulation of tubulin at the centrosomes versus in the nucleus (overall statement)", "setting": "CHO-α-tubulin-YFP cells", "value": "both accumulation of tubulin at the centrosomes and in the nucleus; also recorded: induced accumulation of tubulin in the nucleus"}, {"measurement": "increase of the strong-fluorescent positive cells compared to DMSO", "setting": "[1]; 50 nM", "value": 27.74, "unit": "%"}, {"measurement": "toxicity in vivo", "setting": "[3]", "value": "greater toxicity"}]}
